Experimental findings from US11267825B2 (AICURIS GMBH & CO. KG, priority 2017, dated 2022) are described below.

One test deals with HBV core protein (UniProt P03146). The class given is biochemical. To be noted: read-out: Assembly Activity (IC50); BODIPY-FL labelled core protein, assembly started with NaCl, read after 6 min. The procedure: Biochemical Capsid Assembly Assay
The screening for assembly effector activity was done based on a fluorescence quenching assay published by Zlotnick et al. (2007). The C-terminal truncated core protein containing 149 amino acids of the N-terminal assembly domain was fused to a unique cysteine residue at position 150 and was expressed in E. coli using the pET expression system (Merck Chemicals, Darmstadt). Purification of core dimer protein was performed using a sequence of size exclusion chromatography steps. In brief, the cell pellet from 1 L BL21 (DE3) Rosetta2 culture expressing the coding sequence of core protein cloned NdeI/XhoI into expression plasmid pET21b was treated for 1 h on ice with a native lysis buffer (Qproteome Bacterial Protein Prep Kit; Qiagen, Hilden). After a centrifugation step the supernatant was precipitated during 2 h stirring on ice with 0.23 g/ml of solid ammonium sulfate. Following further centrifugation the resulting pellet was resolved in buffer A (100 mM Tris, pH 7.5; 100 mM NaCl; 2 mM DTT) and was subsequently loaded onto a buffer A equilibrated CaptoCore 700 column (GE HealthCare, Frankfurt). The column flow through containing the assembled HBV capsid was dialyzed against buffer N (50 mM NaHCO3 pH 9.6; 5 mM DTT) before urea was added to a final concentration of 3M to dissociate the capsid into core dimers for 1.5 h on ice. The protein solution was then loaded onto a 1 L Sephacryl S300 column. After elution with buffer N core dimer containing fractions were identified by SDS-PAGE and subsequently pooled and dialyzed against 50 mM HEPES pH 7.5; 5 mM DTT. To improve the assembly capacity of the purified core dimers a second round of assembly and disassembly starting with the addition of 5 M NaCl and including the size exclusion chromatography steps described above was performed. From the last chromatography step core dimer containing fractions were pooled and stored in aliquots at concentrations between 1.5 to 2.0 mg/ml at −80° C.
Immediately before labelling the core protein was reduced by adding freshly prepared DTT in a final concentration of 20 mM. After 40 min incubation on ice storage buffer and DTT was removed using a Sephadex G-25 column (GE HealthCare, Frankfurt) and 50 mM HEPES, pH 7.5. For labelling 1.6 mg/ml core protein was incubated at 4° C. and darkness overnight with BODIPY-FL maleimide (Invitrogen, Karlsruhe) in a final concentration of 1 mM. After labelling the free dye was removed by an additional desalting step using a Sephadex G-25 column. Labelled core dimers were stored in aliquots at 4° C. In the dimeric state the fluorescence signal of the labelled core protein is high and is quenched during the assembly of the core dimers to high molecular capsid structures. The screening assay was performed in black 384 well microtiter plates in a total assay volume of 10 μl using 50 mM HEPES pH 7.5 and 1.0 to 2.0 μM labelled core protein. Each screening compound was added in 8 different concentrations using a 0.5 log-unit serial dilution starting at a final concentration of 100 μM, 31.6 μM or 10 μM. In any case the DMSO concentration over the entire microtiter plate was 0.5%. The assembly reaction was started by the injection of NaCl to a final concentration of […] which induces the assembly process to approximately 25% of the maximal quenched signal. 6 min after starting the reaction the fluorescence signal was measured using a Clariostar plate reader (BMG Labtech, Ortenberg) with an excitation of 477 nm and an emission of 525 nm. As 100% and 0% assembly control HEPES buffer containing 2.5 M and 0 M NaCl was used. Experiments were performed thrice in triplicates. EC50 values were calculated by non-linear regression analysis using the Graph Pad Prism 6 software (GraphPad Software, La Jolla, USA).

In a further test the test system is HBV. The experiment in a line: Determination of HBV DNA from the supernatants of HepAD38 cells (anti-HBV activity). The class given is cell-based, hepatitis B virus. The note with it: Hepatitis B virus, 144 h; HBV DNA in HepAD38 supernatant at day 6; read-out: Cell Activity (EC50). The procedure:
Determination of HBV DNA from the Supernatants of HepAD38 Cells
The anti-HBV activity was analysed in the stable transfected cell line HepAD38, which has been described to secrete high levels of HBV virion particles (Ladner et al., 1997). In brief, HepAD38 cells were cultured at 37° C. at 5% CO2 and 95% humidity in 200 μl maintenance medium, which was Dulbecco's modified Eagle's medium/Nutrient Mixture F-12 (Gibco, Karlsruhe), 10% fetal bovine serum (PAN Biotech Aidenbach) supplemented with 50 μg/ml penicillin/streptomycin (Gibco, Karlsruhe), 2 mM L-glutamine (PAN Biotech, Aidenbach), 400 μg/ml G418 (AppliChem, Darmstadt) and 0.3 μg/ml tetracycline. Cells were subcultured once a week in a 1:5 ratio, but were usually not passaged more than ten times. For the assay 60,000 cells were seeded in maintenance medium without any tetracycline into each well of a 96-well plate and treated with serial half-log dilutions of test compound. To minimize edge effects the outer 36 wells of the plate were not used but were filled with assay medium. On each assay plate six wells for the virus control (untreated HepAD38 cells) and six wells for the cell control (HepAD38 cells treated with 0.3 μg/ml tetracycline) were allocated, respectively. In addition, one plate set with reference inhibitors like BAY 41-4109, entecavir, and lamivudine instead of screening compounds were prepared in each experiment. In general, experiments were performed thrice in triplicates. At day 6 HBV DNA from 100 μl filtrated cell culture supernatant (AcroPrep Advance 96 Filter Plate, […] Supor membran, PALL GmbH, Dreieich) was automatically purified on the MagNa Pure LC instrument using the MagNA Pure 96 DNA and Viral NA Small Volume Kit (Roche Diagnostics, Mannheim) according to the instructions of the manufacturer. EC50 values were calculated from relative copy numbers of HBV DNA. In brief, 5 μl of the 100 μl eluate containing HBV DNA were subjected to PCR LC480 Probes Master Kit (Roche) together with 1 μM antisense primer […], 0.5 μM sense primer […], 0.3 μM hybprobes […]-FL and LC640-[…]-PH (TIBMolBiol, Berlin) to a final volume of 12.5 μl. The PCR was performed on the Light Cycler 480 real time system (Roche Diagnostics, Mannheim) using the following protocol: Pre-incubation for 1 min at 95° C., amplification: 40 cycles×(10 sec at 95° C., 50 sec at 60° C., 1 sec at 70° C.), cooling for 10 sec at 40° C. Viral load was quantitated against known standards using HBV plasmid DNA of pCH-9/3091 (Nassal et al., 1990, Cell 63: 1357-1363) and the LightCycler 480 SW 1.5 software (Roche Diagnostics, Mannheim) and EC50 values were calculated using non-linear regression with GraphPad Prism 6 (GraphPad Software Inc., La Jolla, USA).

SMILES strings stand for the structures.

HBV core protein, sequence (P03146 whole entry, looked up, the tested form may be a part): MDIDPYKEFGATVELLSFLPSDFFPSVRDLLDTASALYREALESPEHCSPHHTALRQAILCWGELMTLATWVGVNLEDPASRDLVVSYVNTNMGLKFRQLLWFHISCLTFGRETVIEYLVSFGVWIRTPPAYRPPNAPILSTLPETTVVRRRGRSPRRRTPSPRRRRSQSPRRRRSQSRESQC

With `CC(=O)N1CCC(C(=O)Nc2nc3c(s2)CN(C(=O)c2cc4ccccc4[nH]2)CC3)CC1` [Example 410, 1-acetyl-N-[5-(1H-indole-2-carbonyl)-4H,5H,6H,7H-[1,3]thiazolo[5,4-c]pyridin-2-yl]piperidine-4-carboxamide], the IC50 (in general, the concentration that inhibits the measured activity by half) on HBV core protein is less than 5000 nM. Also, the EC50 – broadly, the concentration needed to bring the measured effect to its halfway point – with HBV is less than 1000 nM.

Regarding `COCCNc1nc2c(s1)CN(C(=O)c1cc3ccccc3[nH]1)CC2` [Example 97, 5-(1H-indole-2-carbonyl)-N-(2-methoxyethyl)-4H,5H,6H,7H-[1,3]thiazolo[5,4-c]pyridin-2-amine], the IC50 at HBV core protein is less than 5000 nM. The EC50 in the test with HBV is less than 1000 nM. The like results for `CC(F)(F)c1cc(F)cc2[nH]c(C(=O)N3CCc4nc(NCC5CCOC5)sc4C3)cc12` (stereo not drawn) [Example 327, 5-[4-(1,1-difluoroethyl)-6-fluoro-1H-indole-2-carbonyl]-N-[(oxolan-3-yl)methyl]-4H,5H,6H,7H-[1,3]thiazolo[5,4-c]pyridin-2-amine] were, in that order, less than 5000 nM and less than 1000 nM. The like results for `O=C(c1cc2ccccc2[nH]1)N1CCc2nc(NC3CCC(O)CC3)sc2C1` (stereo not drawn) [Example 67, 4-{[5-(1H-indole-2-carbonyl)-4H,5H,6H,7H-[1,3]thiazolo[5,4-c]pyridin-2-yl]amino}cyclohexan-1-ol] were, in that order, less than 5000 nM and less than 1000 nM. The like results for `Cc1nc2c(s1)CN(C(=O)c1cc3cc(F)c(F)cc3[nH]1)CC2` [Example 164] were, in that order, less than 5000 nM and less than 1000 nM. Regarding `Cc1ccc2[nH]c(C(=O)N3CCc4nc(N)sc4C3)cc2c1C` [Example 136, 5-(4,5-dimethyl-1H-indole-2-carbonyl)-4H,5H,6H,7H-[1,3]thiazolo[5,4-c]pyridin-2-amine], on HBV core protein, the IC50 was 5000 to 10000 nM. For the same molecule, the EC50 in the test on HBV is 1000 to 10000 nM.

For the molecule `O=C(c1cc2c(C(F)(F)F)cccc2[nH]1)N1CCc2nc(NCC3CCOC3)sc2C1` (stereo not drawn) [Example 123, 5-(4-(trifluoromethyl)-1H-indole-2-carbonyl)-N-[(oxolan-3-yl)methyl]-4H,5H,6H,7H-[1,3]thiazolo[5,4-c]pyridin-2-amine], the IC50 at HBV core protein lay in the range of 5000 to 10000 nM. The EC50 in the test on HBV was less than 1000 nM. With `Cc1c(Cl)ccc2cc(C(=O)N3CCc4nc(N)sc4C3)[nH]c12` [Example 134, 5-(6-chloro-7-methyl-1H-indole-2-carbonyl)-4H,5H,6H,7H-[1,3]thiazolo[5,4-c]pyridin-2-amine], the IC50 on HBV core protein is less than 5000 nM. Also, the EC50 with HBV was less than 1000 nM. `CS(=O)(=O)Nc1nc2c(s1)CN(C(=O)c1cc3ccccc3[nH]1)CC2` [Example 24, N-[5-(1H-indole-2-carbonyl)-4H,5H,6H,7H-[1,3]thiazolo[5,4-c]pyridin-2-yl]methanesulfonamide]: on HBV core protein, the IC50 is less than 100000 nM. For the same molecule, the EC50 with HBV lay in the range of 1000 to 10000 nM. The like results for `CC(O)c1cccc2[nH]c(C(=O)N3CCc4nc(N)sc4C3)cc12` (stereo not drawn) [Example 10, 1-(2-{2-amino-4H,5H,6H,7H-[1,3]thiazolo[5,4-c]pyridine-5-carbonyl}-1H-indol-4-yl)ethan-1-ol] were, in that order, less than 100000 nM and 1000 to 10000 nM. The like results for `O=C(c1cc2c(F)c(F)ccc2[nH]1)N1CCc2nc(NCC3(O)CCC3)sc2C1` [Example 375, 1-({[5-(4,5-difluoro-1H-indole-2-carbonyl)-4H,5H,6H,7H-[1,3]thiazolo[5,4-c]pyridin-2-yl]amino}methyl)cyclobutan-1-ol] were, in that order, less than 5000 nM and less than 1000 nM. The like results for `O=C(c1cc2c(F)cc(F)cc2[nH]1)N1CCc2nc(NCC3(O)CCC3)sc2C1` [Example 314, 1-({[5-(4,6-difluoro-1H-indole-2-carbonyl)-4H,5H,6H,7H-[1,3]thiazolo[5,4-c]pyridin-2-yl]amino}methyl)cyclobutan-1-ol] were, in that order, less than 5000 nM and less than 1000 nM. In the case of `CC1(C(=O)Nc2nc3c(s2)CN(C(=O)c2cc4c(Cl)cc(F)cc4[nH]2)CC3)CC1` [Example 305, N-[5-(4-chloro-6-fluoro-1H-indole-2-carbonyl)-4H,5H,6H,7H-[1,3]thiazolo[5,4-c]pyridin-2-yl]-1-methylcyclopropane-1-carboxamide], the EC50 with HBV is less than 1000 nM. As to `N#CC12CC(Nc3nc4c(s3)CN(C(=O)c3cc5ccccc5[nH]3)CC4)(C1)C2` [Example 435, 3-{[5-(1H-indole-2-carbonyl)-4H,5H,6H,7H-[1,3]thiazolo[5,4-c]pyridin-2-yl]amino}bicyclo[1.1.1]pentane-1-carbonitrile], the EC50 with HBV was less than 1000 nM.

With `CCOC(=O)C1(CNc2nc3c(s2)CN(C(=O)c2cc4ccccc4[nH]2)CC3)CC1` [Example 317, Ethyl 1-({[5-(1H-indole-2-carbonyl)-4H,5H,6H,7H-[1,3]thiazolo[5,4-c]pyridin-2-yl]amino}methyl)cyclopropane-1-carboxylate], in the test on HBV, the EC50 is 1000 to 10000 nM. Same read-out and setting: for `O=C(c1cc2cc(F)c(F)cc2[nH]1)N1CCc2nc(NCC3(O)CCC3)sc2C1` [Example 369, 1-({[5-(5,6-difluoro-1H-indole-2-carbonyl)-4H,5H,6H,7H-[1,3]thiazolo[5,4-c]pyridin-2-yl]amino}methyl)cyclobutan-1-ol] the value was less than 1000 nM; for `O=C(c1cc2ccccc2[nH]1)N1CCc2nc(N[C@H]3CCC[C@@H](O)C3)sc2C1` [Example 350, (1R,3S)-3-{[5-(1H-indole-2-carbonyl)-4H,5H,6H,7H-[1,3]thiazolo[5,4-c]pyridin-2-yl]amino}cyclohexan-1-ol], less than 1000 nM; for `O=C(c1cc2c(C(F)(F)F)cccc2[nH]1)N1CCc2nc(NCC3(O)CCC3)sc2C1` [Example 374, 1-[({5-[4-(trifluoromethyl)-1H-indole-2-carbonyl]-4H,5H,6H,7H-[1,3]thiazolo[5,4-c]pyridin-2-yl}amino)methyl]cyclobutan-1-ol], less than 1000 nM.
